Experimental data from patent USRE46792E1, “Oxazole compound and pharmaceutical composition” (Otsuka Pharmaceutical Co., Ltd., priority 2005, dated 2018).

Columns and labels:
human PDE4D3 (PDE4D) = human PDE4D3 (PDE4D) (Homo sapiens (Human), UniProt Q08499); experiment: Phosphodiesterase (PDE)4 inhibitory activity evaluation test ([3H]cAMP hydrolysis by PDE4D enzyme solution); format: biochemical; settings: recombinant human PDE4D3 expressed in COS-7 cells; [3H]cAMP substrate; 10 min at 30° C.; 2% DMSO
Sequence of human PDE4D3 (PDE4D) (Q08499 other isoform, or with tags, fused parts or gaps): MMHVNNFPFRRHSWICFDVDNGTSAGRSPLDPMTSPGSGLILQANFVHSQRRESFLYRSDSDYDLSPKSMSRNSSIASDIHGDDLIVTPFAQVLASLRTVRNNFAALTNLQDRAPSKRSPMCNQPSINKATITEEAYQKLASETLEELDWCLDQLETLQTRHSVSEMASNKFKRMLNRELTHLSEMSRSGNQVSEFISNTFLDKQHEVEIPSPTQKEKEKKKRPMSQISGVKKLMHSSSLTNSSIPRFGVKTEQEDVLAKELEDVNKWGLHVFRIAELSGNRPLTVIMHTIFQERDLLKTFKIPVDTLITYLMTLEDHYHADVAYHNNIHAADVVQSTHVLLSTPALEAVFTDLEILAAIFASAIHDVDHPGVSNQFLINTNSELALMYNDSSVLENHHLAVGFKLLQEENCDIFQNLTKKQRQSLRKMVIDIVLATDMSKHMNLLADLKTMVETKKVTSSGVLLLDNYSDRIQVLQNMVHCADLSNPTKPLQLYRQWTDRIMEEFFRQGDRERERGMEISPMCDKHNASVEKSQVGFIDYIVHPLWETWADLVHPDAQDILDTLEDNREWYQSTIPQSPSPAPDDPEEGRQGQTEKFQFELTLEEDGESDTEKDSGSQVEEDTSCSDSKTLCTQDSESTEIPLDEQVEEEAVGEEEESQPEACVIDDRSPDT
Procedure, shortened: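 Human PDE4D3 expressed in COS-7 cells; cell supernatant used as enzyme at a dilution giving 10–30% cAMP turnover. Compounds (10-fold serial dilutions, 2% final DMSO) incubated with enzyme and 2 μM [3H]cAMP stock in 20 mM Tris-HCl pH 7.4 with MgCl2 for 10 min at 30° C. Reaction stopped by boiling.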

[1] = test system: TNF-α production in mouse peripheral blood mononuclear cells; experiment: Inhibitory activity measurement on TNF-α production (LPS-stimulated mouse peripheral blood mononuclear cells, ELISA); format: cell-based, mouse (male BALB/c); settings: PBMC, LPS 1 μg/ml, 5 hours at 37° C., ELISA of culture supernatant
Procedure: Inhibitory Activity Measurement on TNF-α Production
TNF-α production inhibitory activity was evaluated according to the following tests.
(1) Isolation of Mononuclear Cells from Mouse Peripheral Blood
Mononuclear cells were isolated from heparinized blood obtained from male BALB/c mice (Charles River Laboratories, Japan) by density gradient centrifugation using Lympholyte-M (Cedarlane Laboratories). Viable cell numbers in the peripheral blood mononuclear cells were counted using trypan blue dye, and prepared in cell culture medium (RPMI 1640 medium containing 10% FCS) to 1.25×10^6 cells/ml.
(2) Induction of TNF-α Production
Test compounds were dissolved in DMSO, and test compound solutions were diluted for use in cell culture media. 20 μl test compound solutions of different concentrations and 160 μl peripheral blood mononuclear cell suspensions were placed in a 96-well plate, and cultured for 30 minutes. 20 μl (final concentration 1 μg/ml) lipopolysaccharide (LPS) derived from E. coli (serotype 055:B5) was added thereto to induce THF-α production. The mixtures were then cultured at 37° C. for 5 hours, and the culture supernatant was removed from each well.
(3) Measurement of TNF-α Concentration
TNF-α concentrations in the culture supernatants were measured by ELISA (OptEIA™ Set Mouse TNF-α, BD Pharmingen). The IC50 values (concentration which produced 50% inhibition of TNF-α production) for the test compounds were determined with the Excel (Microsoft Excel 2000 SR-1) statistical package using regression analysis function.

For `COc1ccc(-c2nc(CNC(=O)c3ncccc3C)co2)cc1OC1CCCC1` [Example 18, N-[2-(3-cyclopentyloxy-4-methoxyphenyl)oxazol-4-ylmethyl]-3-methylpicolinamide], the IC50 (human PDE4D3 (PDE4D)) was less than 50 nM and the IC50 [1] was less than 50 nM.

With `COc1ccc(-c2nc(CNC(=O)c3c(F)cccc3OC)co2)cc1OCC1CC1` [Example 43, N-[2-(3-cyclopropylmethoxy-4-methoxyphenyl)oxazol-4-ylmethyl]-2-fluoro-6-methoxybenzamide] the IC50 (human PDE4D3 (PDE4D)) was less than 50 nM and the IC50 [1] was less than 50 nM.

Compound `COc1ccc(-c2nc(CCC(=O)c3ncccc3OC)co2)cc1OCC1CC1` [Example 126] has an IC50 [1] of less than 50 nM.

Compound `COc1ccc(-c2nc(CCC(=O)c3ncccc3C)co2)cc1OC1C=CCCC1` (centres unmarked) [Example 157, 3-{2-[3-(2-cyclohexenyloxy)-4-methoxyphenyl]oxazol-4-yl}-1-(3-methylpyridin-2-yl)propan-1-one] has an IC50 (human PDE4D3 (PDE4D)) of less than 50 nM and an IC50 [1] of less than 50 nM.

`C=CCOc1ccccc1C(=O)CCc1coc(-c2ccc(OC)c(OCC3CC3)c2)n1` [Example 177, 1-(2-allyloxyphenyl)-3-[2-(3-cyclopropylmethoxy-4-methoxyphenyl)oxazol-4-yl]propan-1-one] showed an IC50 (human PDE4D3 (PDE4D)) of less than 50 nM and an IC50 [1] of less than 50 nM.

`C=CCCOc1cc(-c2nc(CNC(=O)c3ccccc3OCC)co2)ccc1OC(F)F` [Example 354, N-[2-(3-but-3-enyloxy-4-difluoromethoxyphenyl)oxazol-4-ylmethyl]-2-ethoxybenzamide] showed an IC50 (human PDE4D3 (PDE4D)) of less than 50 nM.

`CCOc1ccccc1C(=O)NCc1coc(-c2ccc(OC(F)F)c(OC(CC)CC)c2)n1` [Example 355, N-{2-[4-difluoromethoxy-3-(1-ethylpropoxy)phenyl]oxazol-4-ylmethyl}-2-ethoxybenzamide] was tested, and the IC50 (human PDE4D3 (PDE4D)) was less than 50 nM.

`CCOc1ccccc1C(=O)NCc1coc(-c2ccc(OC(F)F)c(OCC(F)F)c2)n1` [Example 382, N-{2-[4-difluoromethoxy-3-(2,2-difluoroethoxy)phenyl]-oxazol-4-ylmethyl}-2-ethoxy benzamide] was tested, and the IC50 (human PDE4D3 (PDE4D)) was less than 50 nM.

For `CCOc1ccccc1C(=O)NCc1coc(-c2ccc(OC(F)F)c(OCC(F)(F)F)c2)n1` [Example 383, N-{2-[4-difluoromethoxy-3-(2,2,2-trifluoroethoxy)phenyl]-oxazol-4-ylmethyl}-2-ethoxy benzamide], the IC50 (human PDE4D3 (PDE4D)) was less than 50 nM.

`COc1ccc(-c2nc(CNC(=O)c3ncccc3C)co2)cc1OC(C)C` [Example 384, N-[2-(4-methoxy-3-isopropoxyphenyl)oxazol-4-ylmethyl]-3-methylpicolinamide] gave an IC50 (human PDE4D3 (PDE4D)) of less than 50 nM.
